Consider 13 compounds from patent publication US10590106B2, “Certain chemical entities, compositions, and methods” (NeuPharma, Inc., priority 2012, dated 2020).

Assay [1] deals with BRAF V600E (Homo sapiens (Human), UniProt P15056, V600E). Description: Inhibitory activity against kinase BRAF V600E, Z'-LYTE method (Invitrogen). Conditions: for inhibition at 1 µM: read-out: Inhibition (% inhibition at 1 μM) against BRAF V600E. The format is biochemical. A digest of the protocol:
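FRET-based Z′-LYTE peptide-phosphorylation assay in 50 mM HEPES pH 7.5, 0.01% BRIJ-35, 10 mM MgCl2, 1 mM EGTA; kinase reaction 60 min at room temperature, then 60 min development before fluorescence read. IC50 from concentration vs % inhibition; single-point % inhibition tested at 1 μM.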

In assay [2] the target is KDR (VEGFR2) (Homo sapiens (Human), UniProt P35968). As to the kind of experiment: Inhibitory activity against kinase KDR, Z'-LYTE method (Invitrogen). The format is biochemical. As to conditions: for inhibition at 1 µM: read-out: Inhibition (% inhibition at 1 μM) against KDR. A digest of the protocol:
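Human KDR (VEGFR2) kinase inhibition was measured with Invitrogen's Z′-LYTE® method. A 2× mixture of KDR and Tyr 01 peptide is made in 50 mM HEPES pH 7.5, 0.01% BRIJ-35, 10 mM MgCl2, 1 mM EGTA. Each 10 μL reaction holds 0.5-11.7 ng enzyme and 2 μM Tyr 01. It incubates for 1 hour, then 5 μL of Development Reagent B diluted 1:256 is added.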

The test system of assay [3] is A375 cells. As to the kind of experiment: Inhibition of cancer cell growth, MTT or MTS assay, A375. The format is cell-based. Conditions: Homo sapiens, A-375; 72 h incubation. The method in brief:
(§1)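 Cells in RPMI 1640 with 10% FBS were seeded at ~2000 (A375) or 4000 (A549, Colo205) per well, grown 24 h, then exposed to compound 72 h at 1% final DMSO. Read-out by MTT (570 nm) or MTS (490 nm). IC50 from concentration vs percent inhibition, triplicates.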

The test system of assay [4] is A549 cells. Description: Inhibition of cancer cell growth, MTT or MTS assay, A549. Conditions: Homo sapiens, 72 h incubation. It counts as cell-based. The method in brief:
as §1
(Formazan colour is commonly taken as a measure of viable cells.)

Assay [5] deals with Colo205 cells. Description: Inhibition of cancer cell growth, MTT or MTS assay, Colo205. It counts as cell-based. As to conditions: Homo sapiens, COLO 205; 72 h incubation. The procedure:
Inhibition of cell growth by compounds was measured using MTT or MTS assay. Tumor cell lines were purchased from ATCC (American Type Culture Collection, Manassas, Va.). All cell lines were maintained in RPMI 1640 (Hyclone) supplemented with 10% fetal bovine serum (FBS, Hyclone), glutamine (2 mM, Hyclone), and antibiotics (penicillin 100 U/mL and streptomycin 50 μg/mL) at 37° C. in a humidified atmosphere of 5% CO2 in air. Taxol (as a positive control, Sigma) and compounds were dissolved in DMSO (Sigma), and the final concentration of DMSO in the medium was 1%. Tumor cells were plated in 96-well plates at densities of about 2000 (A375) or 4000 (A549 and Colo205) cells/well of a 96-well plate and allowed to adhere/grow for 24 h. They were then treated with various concentrations of drug and incubated for 72 h. For MTT method, medium was then removed by inverting and tapping the plates. 100 μL of MTT (0.5 mg/ml) was added to each well followed by an incubated at 37° C. for 4 h. MTT was then removed and 200 μL of DMSO was added to each well, and the ODs at 570 nm were measured after a 5 second shaking cycle in a 96-well spectrophotometer. For MTS method, 20 μL MTS (CellTiter 96 Aqueous One Solution, Promega) was added to each well followed by an incubated at 37° C. for 2-4 h, solutions were then directly put in a 96-well spectrophotometer, and the ODs at 490 nm were measured.
All concentrations of compounds were tested in triplicate and controls were averaged over 4 wells. IC50 was calculated by plotting the concentration of compound vs the percentage of inhibition in treated wells using GraphPad Prism 5. […] The scale utilized in Tables […] is as follows: +++ less than 1000 nM; ++ between 1000 nM and 5000 nM; and + greater than 5000 nM. The scale utilized in Table 8 is as follows: +++ less than 2000 nM; ++ between 2000 nM and 5000 nM; and + greater than 5000 nM.

Assay [6] deals with BRAF (Homo sapiens (Human), UniProt P15056). As to the kind of experiment: Inhibitory activity against kinase BRAF, Z'-LYTE method (Invitrogen). It counts as biochemical. Conditions: 1 μM compound. The method, then:
Inhibitory activities Inhibitory activities of compounds against BRAF, and BRAF V600E were measured by Invitrogen using Z′-LYTE® Method as briefly described in the following. 4× Test compounds are dissolved in 1% DMSO. […] ATP solutions are diluted to a 4×ATP working concentration in Kinase Buffer (50 mM HEPES pH 7.5, 0.01% BRIJ-35, 10 mM MgCl2, 1 mM EGTA). Reaction started by 30-second shaking of mixture consisting of 2.5 μL 4× test compound, […] and 2.5 μL 4×ATP Solution on Bar-coded Corning, low volume NBS, black 384-well plate (Corning Cat. #3676). Then the mixture was incubated for 60-minute at room temperature for the kinase reaction, followed by addition of 5 μL of a 1:1024 dilution of development reagent A and 30-second plate shake. The mixture was then incubated for another 60-minute at room temperature for development reaction. Fluorescence was read by plate reader. IC50 was calculated by plotting the concentration of compound vs the percentage of inhibition in treated wells using GraphPad Prism 5.
Table 2 and 3 show % inhibition at 1 μM of several compounds of the invention against BRAF and BRAF V600E, respectively, using Z′-LYTE® method.

The structures appear in SMILES notation. Read-outs that look alike come from different tables or passages of the source.

Chain of BRAF (P15056 whole entry): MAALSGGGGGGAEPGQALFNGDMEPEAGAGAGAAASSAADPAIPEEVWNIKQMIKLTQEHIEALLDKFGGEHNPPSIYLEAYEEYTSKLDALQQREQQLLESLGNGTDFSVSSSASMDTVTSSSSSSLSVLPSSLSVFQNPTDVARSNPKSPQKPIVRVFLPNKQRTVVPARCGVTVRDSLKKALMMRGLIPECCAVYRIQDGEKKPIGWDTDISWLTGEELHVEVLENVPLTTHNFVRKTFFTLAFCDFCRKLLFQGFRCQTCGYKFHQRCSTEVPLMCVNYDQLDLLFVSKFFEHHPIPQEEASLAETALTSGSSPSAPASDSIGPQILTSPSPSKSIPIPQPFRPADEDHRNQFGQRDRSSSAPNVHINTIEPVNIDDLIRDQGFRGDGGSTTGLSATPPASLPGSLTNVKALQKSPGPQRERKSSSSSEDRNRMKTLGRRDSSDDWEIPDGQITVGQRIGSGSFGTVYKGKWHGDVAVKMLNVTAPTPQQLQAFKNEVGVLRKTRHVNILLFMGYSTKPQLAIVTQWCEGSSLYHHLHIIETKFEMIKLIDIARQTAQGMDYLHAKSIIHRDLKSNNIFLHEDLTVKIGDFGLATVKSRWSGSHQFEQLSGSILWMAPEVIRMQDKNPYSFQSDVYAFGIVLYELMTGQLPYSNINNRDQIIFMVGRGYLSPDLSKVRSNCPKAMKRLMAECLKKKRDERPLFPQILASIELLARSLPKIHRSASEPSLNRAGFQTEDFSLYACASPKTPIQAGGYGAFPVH
Chain of BRAF V600E (P15056 whole entry V600E): as the sequence (P15056 whole entry) above, with V600E counted along it
Chain of KDR (VEGFR2) (P35968 20-1356): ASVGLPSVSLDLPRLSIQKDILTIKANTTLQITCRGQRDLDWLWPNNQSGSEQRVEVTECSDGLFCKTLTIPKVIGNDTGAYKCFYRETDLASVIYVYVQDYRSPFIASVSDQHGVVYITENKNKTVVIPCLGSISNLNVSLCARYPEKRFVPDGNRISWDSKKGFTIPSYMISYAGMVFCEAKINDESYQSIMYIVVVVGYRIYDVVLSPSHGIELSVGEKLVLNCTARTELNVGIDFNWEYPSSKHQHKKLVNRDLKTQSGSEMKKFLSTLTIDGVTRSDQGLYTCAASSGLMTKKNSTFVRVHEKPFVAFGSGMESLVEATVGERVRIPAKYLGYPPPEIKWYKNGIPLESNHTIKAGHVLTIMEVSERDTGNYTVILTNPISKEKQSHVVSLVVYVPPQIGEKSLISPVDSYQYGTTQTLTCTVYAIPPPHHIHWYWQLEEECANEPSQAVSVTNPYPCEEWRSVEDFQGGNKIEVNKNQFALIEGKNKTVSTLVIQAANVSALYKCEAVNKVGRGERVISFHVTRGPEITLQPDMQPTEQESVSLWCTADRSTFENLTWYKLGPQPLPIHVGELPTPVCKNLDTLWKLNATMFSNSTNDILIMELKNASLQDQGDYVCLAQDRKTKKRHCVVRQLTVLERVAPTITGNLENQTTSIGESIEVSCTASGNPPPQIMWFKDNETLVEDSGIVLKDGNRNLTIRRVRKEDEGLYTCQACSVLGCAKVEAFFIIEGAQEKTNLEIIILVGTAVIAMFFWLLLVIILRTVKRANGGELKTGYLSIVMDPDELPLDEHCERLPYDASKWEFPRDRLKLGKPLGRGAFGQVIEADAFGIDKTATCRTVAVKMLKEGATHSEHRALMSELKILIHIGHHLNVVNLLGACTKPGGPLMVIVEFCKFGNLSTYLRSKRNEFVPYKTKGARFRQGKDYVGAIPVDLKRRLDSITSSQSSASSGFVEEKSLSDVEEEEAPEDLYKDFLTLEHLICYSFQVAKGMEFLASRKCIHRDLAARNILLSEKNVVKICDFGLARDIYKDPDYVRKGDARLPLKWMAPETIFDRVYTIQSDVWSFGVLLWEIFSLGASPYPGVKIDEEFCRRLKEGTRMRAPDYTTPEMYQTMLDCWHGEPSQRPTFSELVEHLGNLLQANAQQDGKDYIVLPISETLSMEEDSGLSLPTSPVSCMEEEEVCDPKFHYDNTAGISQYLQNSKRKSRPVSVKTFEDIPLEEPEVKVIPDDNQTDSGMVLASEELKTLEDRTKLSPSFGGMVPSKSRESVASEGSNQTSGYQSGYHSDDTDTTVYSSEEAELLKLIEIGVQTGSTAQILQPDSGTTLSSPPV

A word on the IC50: it is the concentration needed to halve the response being measured. Lower therefore signals greater potency. A word on the inhibition: it is the percentage by which the read-out fell short of the control. Turning to `O=C(Nc1cccc(Oc2ccc3nccnc3c2)c1)Nc1ccc(Cl)c(C(F)(F)F)c1` [Compound C001, 1-(4-chloro-3-(trifluoromethyl)phenyl)-3-(3-(quinoxalin-6-yloxy)phenyl)urea], the concentration for half-maximal inhibition (IC50) was over 0.1 µM in assay [1]; under 0.1 µM in assay [2]; 1 to 5 µM in assay [3]; under 2 µM in assay [4]; 1 to 5 µM in assay [5]. The inhibition at 1 µM in assay [1] (1 μM compound) and in assay [2] (1 μM compound) was over 89% each time.

Take `O=C(Nc1cccc(Oc2ccc3nccnc3c2)c1)c1ccc(Cl)c(C(F)(F)F)c1` [Compound C006, 4-chloro-N-(3-(quinoxalin-6-yloxy)phenyl)-3-(trifluoromethyl)benzamide]: the inhibition at 1 µM in assay [6] was under 70%; in assay [1] (1 μM compound) it was over 89%; in assay [2] (1 μM compound), 70 to 89%. Also, the 50% inhibitory concentration (IC50) in assay [3] and in assay [4] was over 5 µM throughout.

`N#Cc1ccc(NC(=O)Nc2cccc(Oc3ccc4nccnc4c3)c2)cc1` [Compound C070, 1-(4-cyanophenyl)-3-(3-(quinoxalin-6-yloxy)phenyl)urea]: the inhibition at 1 µM in assay [6], in assay [1] (1 μM compound) and in assay [2] (1 μM compound) was over 89% throughout. Also, the IC50 in assay [3] and in assay [4] was over 5 µM each time.

As for `O=C(Nc1cc(F)cc(F)c1)Nc1ccc(F)c(Oc2ccc3ncc(N4CCOCC4)nc3c2)c1` [Compound C054, 1-(3,5-difluorophenyl)-3-(4-fluoro-3-((3-morpholinoquinoxalin-6-yl)oxy)phenyl)urea], the inhibition at 1 µM is under 70% in assay [6], over 89% in assay [1] (1 μM compound) and under 70% in assay [2] (1 μM compound). The IC50 in assay [3] is 1 to 5 µM; in assay [4], over 5 µM.

On to `N#Cc1ccc(NC(=O)Nc2cccc(Oc3ccc4nccnc4c3)c2)cc1C(F)(F)F` [Compound C073, 1-(4-cyano-3-(trifluoromethyl)phenyl)-3-(3-(quinoxalin-6-yloxy)phenyl)urea], for which the inhibition at 1 µM was under 70% in assay [6], over 89% in assay [1] and 70 to 89% in assay [2]. The IC50 in assay [3] was over 5 µM; in assay [4] it was 2 to 5 µM.

Regarding `O=C(Nc1cccc(Cl)c1)Nc1ccc(Oc2ccc3nccnc3c2)cc1F` [Compound C093, 1-(3-chlorophenyl)-3-(2-fluoro-4-(quinoxalin-6-yloxy)phenyl)urea], the inhibition at 1 µM was 70 to 89% in assay [6], over 89% in assay [1] (1 μM compound) and 70 to 89% in assay [2] (1 μM compound). The half-inhibitory concentration (IC50) in assay [3] and in assay [4] was over 5 µM throughout.

For `O=C(Nc1cccc(Cl)c1)Nc1cccc(Oc2ccc3ncc(N4CCOCC4)nc3c2)c1` [Compound C047, 1-(3-chlorophenyl)-3-(3-((3-morpholinoquinoxalin-6-yl)oxy)phenyl)urea], the inhibition at 1 µM in assay [6] was 70 to 89%; in assay [1] (1 μM compound) it was over 89%; in assay [2] (1 μM compound) it was 70 to 89%. For the same compound, the IC50 was 1 to 5 µM in assay [3] and over 5 µM in assay [4].

In the case of `O=C(Nc1ccc(F)cc1)Nc1ccc(Oc2ccc3ncc(N4CCOCC4)nc3c2)cc1` [Compound C082, 1-(4-fluorophenyl)-3-(4-((3-morpholinoquinoxalin-6-yl)oxy)phenyl)urea], the figures for the inhibition at 1 µM in assay [6], in assay [1] (1 μM compound) and in assay [2] (1 μM compound) were under 70%, over 89% and 70 to 89%, respectively. In assay [5], this compound yielded an IC50 of over 5 µM.

`O=C(Nc1ccc(Cl)cc1)Nc1cccc(Oc2ccc3ncc(N4CCOCC4)nc3c2)c1` [Compound C048, 1-(4-chlorophenyl)-3-(3-((3-morpholinoquinoxalin-6-yl)oxy)phenyl)urea]: the inhibition at 1 µM in assay [6] was 70 to 89%; in assay [1] (1 μM compound), over 89%; in assay [2] (1 μM compound), 70 to 89%. Moreover, the IC50 in assay [3] is 1 to 5 µM; in assay [4] it was 2 to 5 µM.

Regarding `O=C(Nc1cccc(F)c1)Nc1ccc(F)c(Oc2ccc3ncc(N4CCOCC4)nc3c2)c1` [Compound C034, 1-(4-fluoro-3-((3-morpholinoquinoxalin-6-yl)oxy)phenyl)-3-(3-fluorophenyl)urea], the inhibition at 1 µM in assay [6] was under 70%; in assay [1] (1 μM compound), over 89%; in assay [2] (1 μM compound) it was under 70%. For the same compound, the 50% inhibitory concentration (IC50) in assay [3] was under 1 µM; in assay [4] it was over 5 µM.

As to `O=C(Nc1ccc(Oc2ccc3ncc(N4CCNCC4)nc3c2)cc1)Nc1cccc(Cl)c1` [Compound C091, 1-(3-chlorophenyl)-3-(4-((3-(piperazin-1-yl)quinoxalin-6-yl)oxy)phenyl)urea], the inhibition at 1 µM in assay [6], in assay [1] (1 μM compound) and in assay [2] (1 μM compound) was over 89% each time. Further, the concentration for half-maximal inhibition (IC50) in assay [3] lay in the range of 1 to 5 µM; in assay [4], 2 to 5 µM.

Turning to `O=C(Nc1cccc(Oc2ccc3nccnc3c2)c1)Nc1cccc(C(F)(F)F)c1` [Compound C003, 1-(3-(quinoxalin-6-yloxy)phenyl)-3-(3-(trifluoromethyl)phenyl)urea], the figures for the inhibition at 1 µM in assay [6], in assay [1] (1 μM compound) and in assay [2] (1 μM compound) were under 70%, over 89% and over 89%, respectively. Further, the half-inhibitory concentration (IC50) in assay [1] is over 0.1 µM; in assay [2], under 0.1 µM; in assay [3] it was over 5 µM; in assay [4], 2 to 5 µM.

Consider `O=C(Nc1ccc(Oc2ccc3ncc(N4CCNCC4)nc3c2)cc1)Nc1ccc(C(F)(F)F)cc1` [Compound C088, 1-(4-((3-(piperazin-1-yl)quinoxalin-6-yl)oxy)phenyl)-3-(4-(trifluoromethyl)phenyl)urea], for which the inhibition at 1 µM was under 70% in assay [6], over 89% in assay [1] (1 μM compound) and over 89% in assay [2] (1 μM compound). The figures for the half-inhibitory concentration (IC50) in assay [3] and in assay [4] were 1 to 5 µM and 2 to 5 µM, respectively.
